Source: patent US20240024273A1, “TOPICAL ADMINISTRATION OF 2-(DIETHYLAMINO)ETHYL 2-(4-ISOBUTYLPHENYL)PROPRIONATE FOR TREATMENT OF DISEASES” (TECHFIELDS PHARMA CO., LTD., priority 2020, published 2024)
Like-named read-outs stand apart in the source and are kept apart here.

Tests used:
[1] = Phase 1 clinical study: plasma pharmacokinetics of prodrug and ibuprofen; type: in vivo, human; settings: 70 mg; for AUC0-12 / Cmax: human, plasma; for AUC0-12: read-out: prodrug AUC0-12, geometric mean; for Cmax: read-out: prodrug Cmax, geometric mean
Procedure: Following a 5-day washout period, 2-(diethylamino)ethyl 2-(4-isobutylphenyl)propionate was administered b.i.d. during Days 6-11, and a morning dose only was administered to Day 12. Blood samples were collected for PK analysis over the 120-hour post-dose period following the Day 12 dose. Additionally, pre-dose blood samples were collected on Day 7 through Day 11 to evaluate steady-state status.
The same study procedures were followed as described in Part 1.
For single dose PK, serial blood samples were collected on Day 1 dose at the following time points: 0 (pre-dose), 0.25, 0.5, 0.75, 1, 1.5, 2, 2.5, 3, 4, 5, 6, 8, 10, 12, 18, 24, 48, 72, 96 and 120 hours post-dose.
For multiple-dose PK, serial blood samples were collected on Day 12 at the following time points: 0 (pre-dose), 0.25, 0.5, 0.75, 1, 1.5, 2, 2.5, 3, 4, 5, 6, 8, 10, 12, 18, 24, 48, 72, 96 and 120 hours post-dose.
The relative bioavailability of the single dose 70 mg topical application vs. 70 mg spray application was determined based on AUCtau, AUCinf and Cmax. The 90% confidence intervals (CIs) on the ratio of topical application vs. spray application were calculated.

[2] = tested on: osteoarthritis of the knee; settings: cited from earlier work
[3] = tested on: Osteoarthritis; settings: n=107; placebo −33.6; cited from earlier work
[4] = tested on: Osteoarthritis; settings: cited from earlier work
[5] = topical or ocular, Day 1, 70 mg topical
[6] = topical or ocular, Day 12, 70 mg topical

CCN(CC)CCOC(=O)C(C)c1ccc(CC(C)C)cc1.Cl (stereo not drawn) [2-(diethylamino)ethyl 2-(4-isobutylphenyl)propionate hydrochloride]
prodrug AUC0-12 ratio Topical/Spray ([1]; Day 1): 3.28
prodrug Cmax ratio Topical/Spray ([1]; Day 1): 1.34
prodrug AUC0-12 ratio Topical/Spray ([1]; Day 12): 0.91
prodrug Cmax ratio Topical/Spray ([1]; Day 12): 0.93
AUC0-12 [1, 5]: 0.913 ng·h/mL
Cmax [1, 5]: 0.138 ng/mL
AUC0-12 [1, 6]: 0.953 ng·h/mL
Cmax [1, 6]: 0.143 ng/mL
AUC0-12 ([1]; topical, Day 1, 70 mg spray): 0.279 ng·h/mL
Cmax ([1]; topical, Day 1, 70 mg spray): 0.102 ng/mL
AUC0-12 ([1]; topical, Day 12, 70 mg spray): 1.05 ng·h/mL
Cmax ([1]; topical, Day 12, 70 mg spray): 0.155 ng/mL

COc1ccc2cc([C@H](C)C(=O)O)ccc2c1 [Naproxen]
average daily paracetamol use ([2]; naproxen group): 670 mg
Patient's Assessment of Arthritis Pain (VAS 0-100 mm), change [3]: −37.5 mm
difference from placebo, sign and symptoms of OA ([4]; 500 mg BID oral, Week 12): −5.8
patients improved by 2 grades or more from baseline (physician's global assessment) ([4]; 500 mg BID): 33%
Mean ± SEM WOMAC Osteoarthritis Index Composite Score Change from Baselines ([4]; 500 mg, BID, orally, 12 Weeks, scale 0 to 96): −11.9 ± 1.29

COc1ccc2cc([C@H](C)C(=O)OCCCCO[N+](=O)[O-])ccc2c1 [naproxcinod]
decrease of paracetamol use vs placebo group ([2]; active groups): 19.2% to 24.9
